In patent US10544137B2, “PI3K inhibitor, and pharmaceutically acceptable salt, polycrystalline form, and application thereof” (SHANGHAI HAIYAN PHARMACEUTICAL TECHNOLOGY CO., LTD., priority 2016, dated 2020):
Where two headings read alike, the source gives them in different places.

Experiments:
NIH-3T3 cells = experiment: Cytotoxicity in normal cell line NIH-3T3 (MTT assay); assay type: cell-based
Description: The MTT assay procedure and steps were carried out as well known to those skilled in the art, and all the reagents used in the methods were commercially available.
The cells in logarithmic growth phase were digested with 0.25% EDTA trypsin (Gibco, 25200-056) and resuspended in fresh medium. 90 μL of the cell suspension was inoculated into a 96-well cell culture plate (BD Faclon 353072) with a suitable cell density and cultured at 37° C. under 5% CO2. After the cells adhered, 10 μL of the test compound at different concentrations (0.0046-10 μM, 8 concentration points) was added and incubated for another 72 h. 10 μL of MTT (5 mg/mL PBS solution) (Sigma, M5655) was added to react for 4 h. The absorbance at 492 nm was measured by using Thermo Scientific Multiskan MK3 microplate reader and IC50 was calculated using XLFIT 5.0 software (UK IDBS).

PI3K-α (p110α/p85α) = biological target: T1, PI3K-α (p110α/p85α) (Homo sapiens, UniProt P42336); experiment: Determination of PI3K kinase activity (ADP Transcreener fluorescence polarization), PI3K-α; assay type: biochemical; conditions: compared with BKM-120
T1 construct: purchased Invitrogen PV4788
Description: The inhibition of PI3K kinase activity by the compound to be tested was determined by the following method. The working concentration of each component in the 25 μL enzyme reaction system was: p110α/p85α 3 ng (or p110β/p85α 60 ng, or p110δ/p85α 90 ng, or p110γ 100 ng), ATP 10 μM, PIP2: PS (Invitrogen PV5100) 30 μM and the DMSO concentration was 2% after addition of the compound to be tested.
The compound to be tested was gradiently diluted 3 times (0.00046-1 μM, 8 concentration points) with 10% DMSO. 5 μL of the compound to be tested was added to each well of a 96-well plate (Greiner 675076) in duplicate. […] 10 μL of ATP/PIP2: PS and 10 μL of the PI3K enzyme working solution were added to each well in a 96-well plate. The plate was shaken and mixed uniformly, and then incubated at 25° C. for 1 hour. […] After completion of the enzyme reaction, 25 μL of ADP assay solution (1% 100×ADP tracer, 0.79% ADP antibody and 10% 10× reaction stop solution) was added and incubated at 25° C. for 1 hour. Fluorescence polarization value [mP] of each well was measured with a Perkin Elmer Victor X5 Fluorescent Microplate. The ADP concentration [ADP] was calculated from the ADP/ATP standard curve and the IC50 values were calculated using the XLFit software.

[1] = Solubility experiment in 0.1M HCl, buffers and water; assay type: physicochemical; conditions: ambient temperature; for solubility at 30 min: thermodynamic from solid
Description: The solubilities of the following four kinds of salt and free base sample in 0.1M HCl, pH 4.5 buffer, pH 6.8 buffer, and water were tested at ambient temperature. In the test, the calibration curves of free base and four kinds of salt were plotted. 3 mg of solid samples of free base and four kinds of salt were weighed, respectively, and then 1 ml of the solvent was added, centrifuged after 30 min ultrasound. The supernatant was taken, and injected through the membrane, and the solubility was tested.

[2] = Metabolism stability assay in liver microsomes; assay type: in vitro ADME, mouse; conditions: liver microsomal metabolism in mice
Description: Buffer A: 1 L solution of 100 mM potassium dihydrogen phosphate containing 1 mM EDTA (Sigma, V900157-100G) was prepared. Buffer B: 1 L solution of 100 mM dipotassium hydrogen phosphate containing 1 mM EDTA was prepared. Buffer C: 700 mL of buffer B was taken out and titrated with buffer A to pH 7.4.
2.1 10 μl of 10 mM compound to be tested and 10 μl of 10 mM ketanserin were taken out and 190 μl of pure acetonitrile was added to each of them to prepare 500 μM compound to be tested and ketanserin, respectively.
2.2 20 μl (20 mg/mL) of liver microsomes (XENOTECH, H0610) stock solution was added to 513.4 μl of buffer C on wet ice. 0.75 mg/mL liver microsomal solution was obtained.
2.3 1.5 μl of each of the above-mentioned compound to be tested and ketanserin solution was added to 498.5 μl of liver microsomal solution (0.7 5 mg/mL) respectively on wet ice. 1.5 μM mixed solution of compound to be tested and 1.5 μM mixed solution of ketanserin were obtained. […]
2.10 The sample was diluted with pure water in accordance with the ratio of 1:1 and detected by LC/MS. […]
Wherein, the K value and the proportional factor were calculated by those skilled in the art according to the methods described in the prior art and contained in the instructions of the liver microsome product.

T1 sequence (P42336 whole entry): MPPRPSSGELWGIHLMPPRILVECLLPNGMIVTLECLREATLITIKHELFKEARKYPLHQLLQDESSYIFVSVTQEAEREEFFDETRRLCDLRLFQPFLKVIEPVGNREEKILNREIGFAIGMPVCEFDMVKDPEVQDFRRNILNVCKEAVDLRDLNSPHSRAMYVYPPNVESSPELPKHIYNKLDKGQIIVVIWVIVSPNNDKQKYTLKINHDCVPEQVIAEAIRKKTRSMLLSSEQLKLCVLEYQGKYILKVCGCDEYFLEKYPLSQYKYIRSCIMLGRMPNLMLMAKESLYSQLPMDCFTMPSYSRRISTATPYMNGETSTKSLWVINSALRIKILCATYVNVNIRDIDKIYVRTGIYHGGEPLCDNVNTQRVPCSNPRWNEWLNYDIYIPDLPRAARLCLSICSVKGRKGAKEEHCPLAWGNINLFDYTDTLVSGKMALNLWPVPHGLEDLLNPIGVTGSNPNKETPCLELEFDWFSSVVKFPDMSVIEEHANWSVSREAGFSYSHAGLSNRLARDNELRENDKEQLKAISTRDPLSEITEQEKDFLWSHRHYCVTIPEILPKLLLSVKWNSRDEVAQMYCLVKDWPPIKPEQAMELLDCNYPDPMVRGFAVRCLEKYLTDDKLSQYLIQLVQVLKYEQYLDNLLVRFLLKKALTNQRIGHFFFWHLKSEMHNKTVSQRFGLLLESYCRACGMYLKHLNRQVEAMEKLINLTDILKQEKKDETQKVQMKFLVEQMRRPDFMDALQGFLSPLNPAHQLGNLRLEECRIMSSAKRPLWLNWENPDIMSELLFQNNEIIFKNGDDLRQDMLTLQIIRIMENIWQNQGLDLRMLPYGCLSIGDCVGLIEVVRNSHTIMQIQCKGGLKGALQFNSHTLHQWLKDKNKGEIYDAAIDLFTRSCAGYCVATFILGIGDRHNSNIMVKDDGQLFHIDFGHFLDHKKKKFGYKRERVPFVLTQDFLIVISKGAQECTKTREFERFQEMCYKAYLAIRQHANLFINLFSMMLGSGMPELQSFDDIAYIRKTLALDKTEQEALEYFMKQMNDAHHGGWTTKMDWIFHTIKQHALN
T1 sequence (P27986 whole entry partner): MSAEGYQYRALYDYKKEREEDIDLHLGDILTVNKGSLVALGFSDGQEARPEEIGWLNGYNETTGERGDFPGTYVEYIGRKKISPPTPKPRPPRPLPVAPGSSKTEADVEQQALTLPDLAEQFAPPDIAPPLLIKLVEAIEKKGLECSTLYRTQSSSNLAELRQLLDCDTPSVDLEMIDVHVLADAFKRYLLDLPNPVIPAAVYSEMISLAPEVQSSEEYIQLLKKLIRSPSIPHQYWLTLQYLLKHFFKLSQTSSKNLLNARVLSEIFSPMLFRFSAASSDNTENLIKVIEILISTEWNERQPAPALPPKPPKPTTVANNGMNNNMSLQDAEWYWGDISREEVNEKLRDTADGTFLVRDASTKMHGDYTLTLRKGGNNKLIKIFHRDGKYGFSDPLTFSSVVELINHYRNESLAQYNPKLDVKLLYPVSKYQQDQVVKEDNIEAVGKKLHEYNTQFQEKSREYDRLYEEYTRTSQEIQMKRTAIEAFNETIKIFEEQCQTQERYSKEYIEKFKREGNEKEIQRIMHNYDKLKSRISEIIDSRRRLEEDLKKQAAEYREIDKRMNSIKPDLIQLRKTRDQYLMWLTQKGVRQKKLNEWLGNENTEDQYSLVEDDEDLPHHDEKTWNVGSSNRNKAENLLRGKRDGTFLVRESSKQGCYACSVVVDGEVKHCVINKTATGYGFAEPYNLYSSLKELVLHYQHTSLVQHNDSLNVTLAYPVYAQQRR

## CS(=O)(=O)C1(c2cc(-c3cnc(N)cc3Cl)nc(N3CCOCC3)n2)CC1 [Compound of formula X, 4-chloro-5-(6-(1-(methylsulfonyl)cyclopropyl)-2-morpholinopyrimidin-4-yl)pyridin-2-amine]
NIH-3T3 cells
  cytotoxicity in normal cell lines: relatively low cytotoxicity
PI3K-α (p110α/p85α)
  increase of inhibitory activity against PI3K-α kinase versus BKM-120: about 10 times
[1]; 0.1M HCl, listed as Free base
  Solubility (mg/mL) 0.1M HCl: >2.973 mg/mL
[1]; pH 4.5 buffer, pH 4.5, aqueous buffer, pH 4.5 buffer, read-out: Solubility (mg/mL) pH 4.5
  solubility at 30 min: 0.025 mg/mL
[1]; pH 6.8 buffer, pH 6.8, aqueous buffer, pH 6.8 buffer, read-out: Solubility (mg/mL) pH 6.8
  solubility at 30 min: 0.015 mg/mL
[1]; water, listed as Free base
  Solubility (mg/mL) H2O: 0.016 mg/mL
[2]
  Clearance: 108.9 mL/min/kg
